Patent US7115658B2 (priority 2002, dated 2006)

Molecular target: T1, Recombinant HCV polymerase (Hepatitis C virus genotype 1b, UniProt P26663)
T1 construct: 2.5 pmoles (0.15 μg) HCV polymerase protein
Experiment: HCV Polymerase Inhibition Assay
Assay type: biochemical
Conditions: primer/template-directed transcription, 30 minutes at 30° C.; category symbol
Protocol: The above-described compounds were tested for activity with HCV polymerase. Recombinant HCV polymerase was tested for its ability to perform primer/template-directed transcription in assays that contained 30 mM tris-HCl pH 7.2, 10 mM MgCl2, 20 mM NaCl, 1 mM Dithiothreitol (DTT), 0.05% Tween-20, 1% glycerol, 5 pmoles biotin-dG12 (primer), 0.5 pmoles poly(rC)300 (template), 1 μM GTP, 0.1–0.3 uCi α-^32P-GTP, and 2.5 pmoles (0.15 μg) HCV polymerase protein in a final volume of 75 μL. Reactions were initiated by addition of enzyme and incubated 30 minutes at 30° C. Reactions were stopped by addition of 33 mM EDTA, and polynucleotide products were collected by filtration through Diethylaminoethyl (DE) Filtermat papers (Wallac). Unincorporated triphosphate was removed by washing the filters with 5% dibasic sodium phosphate. The filters were counted in a Packard Tri-Lux Microbeta scintillation counter (Packard Bioscience, Meriden, Conn.). Compounds to be tested were added at various concentrations, e.g., 1 μm to 50 μm, from stocks in 10% DMSO-water (final DMSO is 1% in reaction).
IC50 values were estimated from the primary cpm data (collected in triplicate) using the formula: cpm (I)=cpm (no inhibitor)(1−([I]/([I]+IC50))). An IC50 value represents the concentration (in μM) of a compound that provides 50% inhibition of polymerase-directed transcription in the above assay. A percent inhibition value is expressed for a compound where it was impractical to calculate an IC50 value with available data. If the IC50 estimated by the above equation was less than 200 nM, it was recalculated using the following equation, which takes into account the enzyme concentration (30 nM) in the assay: cpm(I)=cpm(no inhibitor)(1−((((I+IC50+30e−9)−sqrt(((I+IC50+30e−9)^2)−4×30e−9×I)))/((2) (30e−9))). Curve fitting was performed using the program KaleidaGraph (Synergy Software, Reading, Pa.).

T1 sequence (P26663 2420-3010): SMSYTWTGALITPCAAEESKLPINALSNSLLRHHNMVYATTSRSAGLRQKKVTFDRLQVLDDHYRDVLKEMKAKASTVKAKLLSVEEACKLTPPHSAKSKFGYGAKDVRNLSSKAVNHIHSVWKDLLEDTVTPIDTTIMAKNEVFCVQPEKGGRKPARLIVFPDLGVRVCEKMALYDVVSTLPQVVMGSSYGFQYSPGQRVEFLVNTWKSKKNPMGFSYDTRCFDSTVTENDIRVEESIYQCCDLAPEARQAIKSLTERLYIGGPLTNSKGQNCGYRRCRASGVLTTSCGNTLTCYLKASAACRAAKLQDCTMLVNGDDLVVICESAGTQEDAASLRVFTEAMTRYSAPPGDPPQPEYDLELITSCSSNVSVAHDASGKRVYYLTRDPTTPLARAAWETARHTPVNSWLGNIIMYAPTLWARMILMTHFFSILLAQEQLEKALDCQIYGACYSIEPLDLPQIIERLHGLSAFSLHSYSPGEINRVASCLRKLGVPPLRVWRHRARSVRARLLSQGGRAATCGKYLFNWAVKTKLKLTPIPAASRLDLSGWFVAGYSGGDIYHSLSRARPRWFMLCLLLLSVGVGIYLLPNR

**Q.** O=C1O[C@](CCc2cccc(O)c2)(C2CCCC2)CC(O)=C1N(c1ccccc1)c1ccccc1 [Example 156, (S)-6-Cyclopentyl-3-diphenylamino-4-hydroxy-6-[2-(3-hydroxy-phenyl)-ethyl]-5,6-dihydro-pyran-2-one] was tested. Which IC50 did it give?
**A.** 10 to 50 µM

**Q.** For CC(=O)c1ccc(CCC2(C3CCCC3)CC(=O)CC(=O)O2)cc1Cl (stereo not shown) [Example 61, 6-[2-(4-Acetyl-3-chloro-phenyl)-ethyl]-6-cyclopentyl-dihydro-pyran-2,4-dione], which IC50 is on record?
**A.** 1 to 10 µM

**Q.** For CC(C)c1cccc(CCC2(C3CCCC3)CC(=O)CC(=O)O2)c1 (stereo not shown) [Example 9, 6-Cyclopentyl-6-[2-(3-isopropyl-phenyl)-ethyl]-dihydro-pyran-2,4-dione], which IC50 is on record?
**A.** 1 to 10 µM

**Q.** With CC(C)Oc1ccc(CCC2(C3CCCC3)CC(=O)CC(=O)O2)cc1F (stereo not shown) [Example 73, 6-Cyclopentyl-6-[2-(3-fluoro-4-isopropoxy-phenyl)-ethyl]-dihydro-pyran-2,4-dione] as the compound, how does the IC50 read?
**A.** < 1 µM

**Q.** With CC(C)(C)c1cccc(CCC2(C3CCCC3)CC(=O)CC(=O)O2)c1 (stereo not shown) [Example 11, 6-[2-(3-tert-butyl-phenyl)-ethyl]-6-cyclopentyl-dihydro-pyran-2,4-dione] as the compound, how does the IC50 read?
**A.** 1 to 10 µM

**Q.** With COc1ccc(CCC2(C3CCCC3)CC(=O)C(C(=O)c3ccccc3)C(=O)O2)c(OC)c1 (stereo not shown) [Example 175, 3-Benzoyl-6-cyclopentyl-6-[2-(2,4-dimethoxy-phenyl)-ethyl]-dihydro-pyran-2,4-dione] as the compound, how does the IC50 read?
**A.** 10 to 50 µM

**Q.** For O=C1CC(=O)OC(CCc2ccc(Cl)c(Cl)c2)(C2CCCC2)C1 (stereo not shown) [Example 53, 6-Cyclopentyl-6-[2-(3,4-dichloro-phenyl)-ethyl]-dihydro-pyran-2,4-dione], which IC50 is on record?
**A.** 1 to 10 µM

**Q.** For COc1cc(OC)c(CCC2(C3CCCC3)CC(O)=C(Sc3nnc(-c4cccs4)n3C)C(=O)O2)cc1Cl (stereo not shown) [Example 96, 6-[2-(5-chloro-2,4-dimethoxyphenyl)ethyl]-6-cyclopentyl-4-hydroxy-3-[(4-methyl-5-thien-2-yl 4H-1,2,4-triazol-3-yl)thio]-5,6-dihydro-2-one], which IC50 is on record?
**A.** < 1 µM

**Q.** With COc1cc(OC)c(CCC2(C3CCCC3)CC(O)=C(Sc3nccs3)C(=O)O2)cc1Cl (stereo not shown) [Example 109, 6-[2-(5-Chloro-2,4-dimethoxyphenyl)ethyl]-6-cyclopentyl-4-hydroxy-3-(1,3-thiazol-2-ylthio)-5,6-dihydro-2H-pyran-2-one] as the compound, how does the IC50 read?
**A.** < 1 µM

**Q.** COc1ccc(CCC2(C3CCCC3)CC(=O)C(Oc3ccc(Cl)cc3)C(=O)O2)c(OC)c1 (stereo not shown) [Example 164, 3-(4-Chloro-phenoxy)-6-cyclopentyl-6-[2-(2,4-dimethoxy-phenyl)-ethyl]-dihydro-pyran-2,4-dione] was tested. Which IC50 did it give?
**A.** 10 to 50 µM

**Q.** How did the IC50 turn out when CC(C)Oc1ccc(CCC2(C3CCCC3)CC(=O)CC(=O)O2)cc1Cl (stereo not shown) [Example 81, 6-[2-(3-Chloro-4-isopropoxy-phenyl)-ethyl]-6-cyclopentyl-dihydro-pyran-2,4-dione] was run?
**A.** < 1 µM

**Q.** For COc1cc(OC)c(CCC2(C3CCCC3)CC(O)=C(Sc3nc[nH]n3)C(=O)O2)cc1Cl (stereo not shown) [Example 93, 6-[2-(5-Chloro-2,4-dimethoxyphenyl)ethyl]-6-cyclopentyl-4-hydroxy-3-(1H-1,2,4-triazol-3-ylthio)-5,6-dihydro-2H-puran-2-one], which IC50 is on record?
**A.** < 1 µM

**Q.** COc1ccc(OCC2(C3CCCC3)CC(=O)CC(=O)O2)cc1 (stereo not shown) [Example 58, 6-Cyclopentyl-6-(4-methoxy-phenoxymethyl)-dihydro-pyran-2,4-dione] was tested. Which IC50 did it give?
**A.** > 50 µM

**Q.** For COc1ccc(CCC2(C3CCCC3)CC(O)=C(Sc3n[nH]c(-c4ccncc4)n3)C(=O)O2)cc1 (stereo not shown) [Example 111, 6-Cyclopentyl-4-hydroxy-6-[2-(4-methoxyphenyl)ethyl]-3-[(5-pyridin-4-yl-1H-1,2,4-triazol-3-yl)thio]-5,6-dihydro-2H-pyran-2-one], which IC50 is on record?
**A.** < 1 µM

**Q.** How did the IC50 turn out when O=C1CC(=O)OC(CCc2ccc(F)c(F)c2)(C2CCCC2)C1 (stereo not shown) [Example 54, 6-Cyclopentyl-6-[2-(3,4-difluoro-phenyl)-ethyl]-dihydro-pyran-2,4-dione] was run?
**A.** 10 to 50 µM

**Q.** How did the IC50 turn out when O=C1CC(=O)OC(CCc2ccc(OCC3CC3)c(F)c2)(C2CCCC2)C1 (stereo not shown) [Example 57, 6-Cyclopentyl-6-[2-(4-cyclopropylmethoxy-3-fluoro-phenyl)-ethyl]-dihydro-pyran-2,4-dione] was run?
**A.** 1 to 10 µM

**Q.** Which IC50 does the source give for C=CCOCc1ccccc1CCC1(C2CCCC2)CC(=O)CC(=O)O1 (stereo not shown) [Example 5, 6-[2-(2-Allyloxymethylphenyl)ethyl]-6-cyclopentyldihydropyran-2,4-dione] here?
**A.** 10 to 50 µM

**Q.** Which IC50 does the source give for CCCOc1ccc(CCC2(C3CCCC3)CC(=O)CC(=O)O2)cc1F (stereo not shown) [Example 72, 6-Cyclopentyl-6-[2-(3-fluoro-4-propoxy-phenyl)-ethyl]-dihydro-pyran-2,4-dione] here?
**A.** 1 to 10 µM

**Q.** Which IC50 does the source give for COc1ccc(CCC2(C3CCCC3)CC(O)=C(Sc3nnc(O)n3C)C(=O)O2)cc1 (stereo not shown) [Example 117, 6-Cyclopentyl-4-hydroxy-3-[(5-hydroxy-4-methyl-4H-1,2,4-triazol-3-yl)thio]-6-[2-(4-methoxyphenyl)ethyl]-5,6-dihydro-2H-pyran-2-one] here?
**A.** 1 to 10 µM

**Q.** Which IC50 does the source give for Cc1noc(C)c1COc1ccc(CCC2(C3CCCC3)CC(O)=CC(=O)O2)cc1 (stereo not shown) [Example 49, 6-Cyclopentyl-6-(2-{4-[(3,5-dimethylisoxazol-4-yl)methoxy]phenyl}ethyl)-4-hydroxy-5,6-dihydro-2H-pyran-2-one] here?
**A.** 10 to 50 µM

**Q.** Which IC50 does the source give for O=C1CC(=O)OC(CCc2ccc(N3CCCC3=O)cc2)(C2CCCC2)C1 (stereo not shown) [Example 79, 6-Cyclopentyl-6-{2-[4-(2-oxo-pyrrolidin-1-yl)-phenyl]-ethyl}-dihydro-pyran-2,4-dione] here?
**A.** 1 to 10 µM

**Q.** COc1ccc(CCC2(C3CCCC3)CC(=O)CC(=O)O2)cc1Cl (stereo not shown) [Example 27, 6-[2-(3-Chloro-4-methoxy-phenyl)-ethyl]-6-cyclopentyl-dihydro-pyran-2,4-dione] was tested. Which IC50 did it give?
**A.** 1 to 10 µM

**Q.** Which IC50 does the source give for CC(C)Oc1ccc(CCC2(C3CCCC3)CC(=O)CC(=O)O2)cc1 (stereo not shown) [Example 41, 6-Cyclopentyl-6-[2-(4-isopropoxy-phenyl)-ethyl]-dihydro-pyran-2,4-dione] here?
**A.** 1 to 10 µM

**Q.** For O=C1CC(=O)OC(CCc2ccc(OC3CCC3)c(F)c2)(C2CCCC2)C1 (stereo not shown) [Example 56, 6-[2-(4-Cyclobutoxy-3-fluoro-phenyl)-ethyl]-6-cyclopentyl-dihydro-pyran-2,4-dione], which IC50 is on record?
**A.** 1 to 10 µM

**Q.** With O=C1C=C(O)CC(CCCc2ccccc2)(C2CCCC2)O1 (stereo not shown) [Example 21, 6-Cyclopentyl-4-hydroxy-6-(3-phenyl-propyl)-5,6-dihydro-pyran-2 one] as the compound, how does the IC50 read?
**A.** > 50 µM

**Q.** For CCOC(=O)c1c[nH]c(SC2=C(O)CC(CCc3ccc(OC)cc3)(C3CCCC3)OC2=O)n1 (stereo not shown) [Example 119, Ethyl 2-({6-cyclopentyl-4-hydroxy-6-[2-(4-methoxyphenyl)ethyl]-2-oxo-5,6-dihydro-2H-pyran-3-yl}thio)-1H-imidazole-4-carboxylate], which IC50 is on record?
**A.** 1 to 10 µM

**Q.** How did the IC50 turn out when CCOc1ccc(CCC2(C3CCCC3)CC(=O)CC(=O)O2)cc1 (stereo not shown) [Example 25, 6-Cyclopentyl-6-[2-(4-ethoxy-phenyl)-ethyl]-dihydro-pyran-2,4-dione] was run?
**A.** 1 to 10 µM

**Q.** Which IC50 does the source give for CCn1nnnc1SC1=C(O)CC(CCc2cc(Cl)c(OC)cc2OC)(C2CCCC2)OC1=O (stereo not shown) [Example 106, 6-[2-(5-Chloro-2,4-dimethoxyphenyl)ethyl]-6-cyclopentyl-3-[(1-ethyl-1H-tetraazol-5-yl)thio]-4-hydroxy-5,6-dihydro-2H-pyran-2-one] here?
**A.** < 1 µM

**Q.** With O=C(Cc1ccccc1)C1C(=O)CC(CCc2cccc(Cl)c2)(C2CCCC2)OC1=O (stereo not shown) [Example 170, 6-[2-(3-Chloro-phenyl)-ethyl]-6-cyclopentyl-3-phenylacetyl-dihydro-pyran-2,4-dione] as the compound, how does the IC50 read?
**A.** 10 to 50 µM

**Q.** With COc1cc(CCC2(C3CCCC3)CC(O)=CC(=O)O2)ccc1O (stereo not shown) [Example 19, 6-Cyclopentyl-4-hydroxy-6-[2-(4-hydroxy-3-methoxy-phenyl)-ethyl]-5,6-dihydro-pyran-2-one] as the compound, how does the IC50 read?
**A.** 1 to 10 µM

**Q.** With O=C1C=C(O)CC(CCCC2CCCCC2)(C2CCCC2)O1 (stereo not shown) [Example 22, 6-(3-Cyclohexyl-propyl)-6-cyclopentyl-4-hydroxy-5,6-dihydro-pyran-2-one] as the compound, how does the IC50 read?
**A.** 10 to 50 µM

**Q.** For Cc1cccc(CCC2(C3CCCC3)CC(=O)CC(=O)O2)c1 (stereo not shown) [Example 36, 6-Cyclopentyl-6-(2-m-tolyl-ethyl)-dihydro-pyran-2,4-dione], which IC50 is on record?
**A.** 10 to 50 µM

**Q.** For Cn1c(COc2ccc(CCC3(C4CCCC4)CC(O)=CC(=O)O3)cc2)nc2ccccc21 (stereo not shown) [Example 50, 6-Cyclopentyl-6-(2-{4-[(1-methyl-1H-benzimidazol-2-yl)methoxy]phenyl}ethyl)-4-hydroxy-5,6-dihydro-2H-pyran-2-one], which IC50 is on record?
**A.** 10 to 50 µM

Same assay, conditions: primer/template-directed transcription, 30 minutes at 30° C.; read-out: IC50(μM) Category

**Q.** With COc1ccc(CCC2(C3CCCC3)CC(=O)C(Cc3ccccc3)C(=O)O2)cc1Cl (stereo not shown) [Example 178, 3-Benzyl-6-[2-(3-chloro-4-methoxy-phenyl)-ethyl]-6-cyclopentyl-dihydro-pyran-2,4-dione] as the compound, how does the IC50 read?
**A.** 0.6 µM
